The values below come from patent US20020183357A1, “Use of alpha- 1- alpha adrenoceptor agonists with alpha-1-Beta antagonism for the treatment of stress urinary incontinence” (priority 2000, published 2002).

Molecules are shown by their SMILES. Like-named read-outs stand apart in the source and are kept apart here.

Series [1] addresses T1, α1D adrenoceptor subtype (rat aorta) (Rattus norvegicus, UniProt P23944).
T1 sequence (P23944 1-561): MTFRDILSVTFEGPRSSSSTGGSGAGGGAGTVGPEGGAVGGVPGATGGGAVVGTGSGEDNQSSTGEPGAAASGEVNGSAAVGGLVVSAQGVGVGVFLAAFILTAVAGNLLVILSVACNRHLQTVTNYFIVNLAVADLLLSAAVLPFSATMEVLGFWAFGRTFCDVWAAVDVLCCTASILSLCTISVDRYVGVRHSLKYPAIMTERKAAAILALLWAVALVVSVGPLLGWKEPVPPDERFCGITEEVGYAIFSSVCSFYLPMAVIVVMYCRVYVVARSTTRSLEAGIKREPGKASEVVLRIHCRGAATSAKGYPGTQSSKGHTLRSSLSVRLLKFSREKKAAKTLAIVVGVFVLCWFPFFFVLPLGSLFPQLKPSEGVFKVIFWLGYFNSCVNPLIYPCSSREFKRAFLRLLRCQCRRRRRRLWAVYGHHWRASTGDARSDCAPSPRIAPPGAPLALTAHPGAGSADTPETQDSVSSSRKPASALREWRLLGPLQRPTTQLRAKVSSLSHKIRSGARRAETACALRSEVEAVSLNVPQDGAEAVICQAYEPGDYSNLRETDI
Briefly: Rat aorta tissue bath, agonism. The following applies: for α1D efficacy: percent of phenylephrine (100%) contraction. The text has this:
(§1) Quantitative analysis of agonist and antagonist action is the basis of receptor classification and drug design. […] The interaction of an agonist with a receptor may be characterized by two quantities, affinity and efficacy. These quantities can be estimated by generating two concentration response curves and fitting the data to a four parameter curve smoothing routine. The first curve is a reference standard followed by a thorough rinsing and a second curve generated using the test agent. […] Agonist potency (pD2) is expressed as the negative log10 of the EC50. The efficacy is determined by comparing the maximum value of the test agent to the maximum value of the reference agent and expressed as a % of maximum response.
(§2) A cumulative concentration protocol was employed. […] Br. J. Pharmacol. 14, 48-58.

Series [2] has as its target T2, α1A adrenoceptor subtype (rabbit urethra) (Oryctolagus cuniculus, UniProt O02824).
T2 sequence (O02824 1-466): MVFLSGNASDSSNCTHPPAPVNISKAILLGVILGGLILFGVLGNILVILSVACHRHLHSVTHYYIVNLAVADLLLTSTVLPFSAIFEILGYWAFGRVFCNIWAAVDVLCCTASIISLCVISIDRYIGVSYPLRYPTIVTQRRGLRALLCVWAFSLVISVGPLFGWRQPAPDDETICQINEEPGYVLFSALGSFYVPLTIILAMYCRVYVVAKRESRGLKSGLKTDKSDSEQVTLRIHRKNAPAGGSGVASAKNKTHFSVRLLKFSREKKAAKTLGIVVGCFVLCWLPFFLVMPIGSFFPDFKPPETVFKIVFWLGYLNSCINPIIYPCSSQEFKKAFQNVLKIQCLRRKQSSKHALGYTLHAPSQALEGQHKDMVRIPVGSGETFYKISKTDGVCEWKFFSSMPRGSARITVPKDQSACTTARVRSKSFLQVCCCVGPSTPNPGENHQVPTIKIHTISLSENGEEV
Briefly: Rabbit urethra tissue bath, agonism. The following applies: for α1A efficacy: percent of phenylephrine (100%) contraction.
Text: as §1, §2
The efficacy of the compounds are compared as a percent of phenylephrine (100%) contraction.

For series [3] the following is noted: for IUP ED5 mmHg: dose producing 5 mmHg increase in IUP; for Selectivity ratio MAP ED20/IUP ED5: calculated for each dog and then averaged.
Text: Intraurethral Pressure in Dogs (IUP-MAP test)
Female Beagle dogs (Marshall Farms, North Rose, N.Y.) greater that 2 years of age and weighing between 12 and 15 kg were used in these studies. At least 2 weeks prior to any agonist dosing, dogs were instrumented for the chronic measurement of arterial blood pressure by implanting a telemetry transducer/transmitter (TA11PA-C40, Data Sciences International, St. Paul, Minn.) into a carotid artery.
On the test day, dogs fasted since the previous afternoon were pre-anesthetized with thiopental sodium 15 mg/kg i.v. (Pentothal™, Abbott) and intubated. Anesthesia was maintained by allowing the dog to spontaneously breathe a mixture of isoflurane (2.5 to 3 volume %) and oxygen delivered by a Narkomed Standard anesthesia system (North American Drager, Telford, Pa.). An Abbocath-T™ i.v. catheter (18-G, Abbott Laboratories, Abbott Park, Ill.) was inserted into the cephalic vein for the administration of agonists. A telemetry receiver (RA1310, DataSciences) was placed under the head of each dog and was interfaced to a computerized data acquisition system (Modular Instruments Inc.(MI2), Malvern, Pa.) which allowed for the continuous calibrated recording of arterial blood pressure which was electronically filtered to determine its mean value (MAP).
Briefly, a 7 Fr catheter balloon catheter (41224-01, Abbott) was inserted into the urethral orifice and advanced approximately 15 cm until the tip was well inside the bladder. The balloon was then inflated with 1 ml of room air and the catheter slowly withdrawn until resistance (corresponding to the bladder neck) was evident. The balloon was then deflated and the catheter withdrawn an additional 2 cm. The balloon was then reinflated and its catheter port connected to a Gould Statham P23Dd pressure transducer interfaced to a computerized data acquisition system (Modular Instruments, Inc., Malvern, Pa.) for the measurement of intraurethral pressure (IUP). The MAP and IUP pressor responses to increasing iv doses of test agonists were obtained simultaneously. The pressor effects of each dose were allowed to return to baseline before the next dose was given.
The dose required to elicit significant and clinically meaningful changes in IUP (5 mm Hg) relative to the dose required to elicit a physiologically significant increase in blood pressure (20 mm Hg) is calculated.
IUP and MAP pressor effects of each agonist dose were expressed as the maximum net change in each pressure over pre-dose baseline levels. Subsequently, the effective doses required to produce a 5 mmHg increase in IUP (IUP ED5mmHg) and a 20 mmHg increase in MAP (MAP ED20mmHg) were estimated from the dose response data from each dog. Relative urethral versus vascular selectivity of each agonist in each dog was estimated using a ratio of these respective potency indices (MAP ED20mmHg/IUP ED5mmHg).
Data are expressed as means (±S.E.M) and all doses are in nmol/kg, i.v.
The target in series [4] is T3, α1B adrenoceptor subtype (rat spleen) (Rattus norvegicus, UniProt P15823).
T3 sequence (P15823 1-515): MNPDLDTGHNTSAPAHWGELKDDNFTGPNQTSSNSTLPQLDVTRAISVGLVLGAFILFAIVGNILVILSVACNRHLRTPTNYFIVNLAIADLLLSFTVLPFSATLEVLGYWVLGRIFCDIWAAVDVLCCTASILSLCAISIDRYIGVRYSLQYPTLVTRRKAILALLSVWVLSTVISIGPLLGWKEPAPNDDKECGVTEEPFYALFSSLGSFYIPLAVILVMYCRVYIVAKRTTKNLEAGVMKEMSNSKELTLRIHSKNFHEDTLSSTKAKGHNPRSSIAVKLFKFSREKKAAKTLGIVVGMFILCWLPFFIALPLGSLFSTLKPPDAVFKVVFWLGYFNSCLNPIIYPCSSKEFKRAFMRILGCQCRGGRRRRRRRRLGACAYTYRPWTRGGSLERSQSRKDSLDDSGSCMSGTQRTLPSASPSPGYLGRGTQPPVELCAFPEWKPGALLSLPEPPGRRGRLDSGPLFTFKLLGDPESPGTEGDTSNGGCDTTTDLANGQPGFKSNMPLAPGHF
The following applies: for type of antagonism at α1B: based on slope and regression (r) of Schild plot; for α1B r (regression of Schild plot) / α1B slope (Schild plot): rat spleen.
Text: as §2
(§3) The spleen was split longitudinally into two preparations per rat.

Series [5] concerns the target T1, α1D adrenoceptor subtype (rat aorta). The conditions noted are these: for type of antagonism at α1D: based on slope and regression (r) of Schild plot; for α1D r (regression of Schild plot) / α1D slope (Schild plot): rat aorta.
Text: (§4) The interaction of an antagonist with a receptor can be characterized by an affinity constant, pA2. The affinity unit, pA2, can be defined as negative logarithm to base 10 of the molar concentration of antagonist drug that will reduce the effect of the reference agonist by 50%. […] The fractional increase in agonist concentration required to overcome the effects of the antagonist should be independent of the agonist concentration. Secondly, the affinity of the antagonist should be independent of concentration, therefore the Schild plot should have a slope of unity. Thirdly, the antagonist affinity should be independent of the agonist used.
(§5) The urethra was removed with the urinary bladder and immediately placed into Krebs Ringer bicarbonate solution with the following mM concentrations: 120 NaCl, 18.0 NaHCO3, 11.0 dextrose, 4.7 KCl, 2.5 CaCl2, 1.5 MgSO4, 1.2 KH2PO4 and equilibrated with 5% CO2:95% O2. The pH was adjusted to 7.2 at 25° C. by titrating with a saturated solution of NaHCO3. The pH increased to 7.4 at 37° C. Propranolol (0.004 mM) was included in all of the assays to block β-adrenoceptors. […] One end was fixed to a stationary glass rod and the other to a Grass FT03 transducer at a basal preload of 1.0 g of tension. Data was recorded on a Grass model-7 polygraph. Tissues were rinsed every 10 minutes for a total of 45-60 minutes. The urethra was primed once with 80 mM KCl, rinsed to basal tension and again with 10 μM phenylephrine (PE). After an additional 60 minute equilibration period a reference concentration response curve was generated for each tissue using PE as the reference agonist. A cumulative concentration protocol was employed. Following a 75 minute washout period a second response curve was then generated in the same fashion using the test agent. The amount of agent necessary to cause a 50% response (ED50) was calculated using “AGANTG” (Zielinski, P. J., Buckner, S. A. (1998). AGANTG: A Microsoft Excel 5.0-visual basic routine for the analysis of dose-response data. Analyst. 123, 1661-1668), a four parameter curve fitting program similar to “Allfit” (DeLean, A., Munson, P. J., Rodbard, D. (1980). Simultaneous analysis of families of sigmoidal curves: application to bioassay, radioligand assay, and physiological dose-response curves. Am. J. Physiol. 235, E97-102). Agonist potencies were indexed to PE and expressed as the negative logarithm (pD2). Each tissue was used for only one test agonist. For antagonists, the test agent was allowed a 30 minute exposure time before a second PE curve was started. The potency, expressed as a pA2, was calculated according to the method of Arunlakshana, O., Schild, H. O. (1959), Some quantitative uses of drug antagonists. […] The individual tissues were exposed to only one concentration of the test antagonist. The regression lines of the Schild plots were analyzed using least squares regression (Snedecor, G. W., Cochran, W. G., (1980). In Statistical methods, 7th edition, Iowa State University Press, Ames, Iowa).
(§6) Male Sprague Dawley rats (350-450 g) were sedated with CO2 and decapitated. The entire thoracic aorta was removed and immediately placed into Krebs Ringer bicarbonate solution as described above. The aorta was cleaned of extraneous tissue and the endothelium removed by passing a 100 mm length of PE-160 tubing through the lumen. The aorta was cut into 3-4 mm rings and mounted in 10 ml isolated tissue baths at 37° C.
The target of series [6] is T3, α1B adrenoceptor subtype (rat spleen). Put plainly: Rat spleen tissue bath, agonism. Further details: The spleen was split longitudinally into two preparations per rat; from tissue; host or cells: rat spleen.
Text: as §1, §2, §3

The target in series [7] is T1, α1D adrenoceptor subtype (rat aorta).
Text: as §4, §5, §6
The target in series [8] is T4, α1A adrenoceptor (rat submaxillary gland) (Rattus norvegicus, UniProt P43140).
T4 construct: α1A (rat submaxillary gland); from tissue; host or cells: rat submaxillary gland
T4 sequence (P43140 1-466): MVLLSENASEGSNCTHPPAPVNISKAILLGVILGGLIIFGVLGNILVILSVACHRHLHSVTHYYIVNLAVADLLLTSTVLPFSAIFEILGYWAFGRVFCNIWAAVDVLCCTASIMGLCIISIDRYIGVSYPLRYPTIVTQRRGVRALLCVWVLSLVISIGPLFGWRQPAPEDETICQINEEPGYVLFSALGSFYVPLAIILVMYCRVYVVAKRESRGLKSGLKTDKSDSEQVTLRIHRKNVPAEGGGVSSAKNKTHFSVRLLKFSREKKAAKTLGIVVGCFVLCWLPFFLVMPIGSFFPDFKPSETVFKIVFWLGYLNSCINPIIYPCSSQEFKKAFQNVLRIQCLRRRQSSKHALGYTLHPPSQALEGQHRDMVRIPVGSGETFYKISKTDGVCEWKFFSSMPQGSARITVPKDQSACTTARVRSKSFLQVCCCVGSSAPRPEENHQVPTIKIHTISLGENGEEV
Briefly: Radioligand binding, α1A (rat submaxillary gland), [3H]-prazosin.

Series [9] addresses T5, α1b adrenoceptor (hamster receptor expressed in mouse fibroblasts) (Mesocricetus auratus, UniProt P18841).
T5 construct: expressed in transfected cells; host or cells: mouse fibroblasts
T5 sequence (P18841 1-515): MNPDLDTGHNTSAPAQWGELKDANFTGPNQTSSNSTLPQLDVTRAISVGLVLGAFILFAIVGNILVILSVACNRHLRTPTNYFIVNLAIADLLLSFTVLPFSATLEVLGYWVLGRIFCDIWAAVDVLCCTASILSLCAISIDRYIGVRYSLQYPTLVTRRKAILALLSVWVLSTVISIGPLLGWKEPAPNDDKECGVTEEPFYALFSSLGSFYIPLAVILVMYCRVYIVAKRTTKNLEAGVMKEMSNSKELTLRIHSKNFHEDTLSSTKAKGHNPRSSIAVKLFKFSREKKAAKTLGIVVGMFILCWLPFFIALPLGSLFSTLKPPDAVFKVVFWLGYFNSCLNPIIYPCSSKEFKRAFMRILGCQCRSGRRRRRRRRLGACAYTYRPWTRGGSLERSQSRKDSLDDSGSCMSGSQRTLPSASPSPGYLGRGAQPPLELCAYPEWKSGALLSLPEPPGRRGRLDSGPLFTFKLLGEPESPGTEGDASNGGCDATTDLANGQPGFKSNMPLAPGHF
Briefly: Radioligand binding, α1b (hamster receptor expressed in mouse fibroblasts), [3H]-prazosin.

The target in series [10] is T6, α1d adrenoceptor (rat receptor expressed in mouse fibroblasts) (Rattus norvegicus, UniProt P23944).
T6 construct: expressed in transfected cells; host or cells: mouse fibroblasts
T6 sequence (P23944 1-561): T1 sequence (P23944 1-561)
Put plainly: Radioligand binding, α1d (rat receptor expressed in mouse fibroblasts), [3H]-prazosin.

Where [11] appears, read: i.v., anesthetized female Beagle dogs, mean ± S.E.M.
Setting [12] is: i.v., anesthetized female Beagle dogs, dose producing 20 mmHg increase in MAP, mean ± S.E.M.

Consider `CS(=O)(=O)Nc1c(O)ccc2c1CCCC2C1=NCCN1` (centres unmarked) [Compound A-61603, reference compound], for which the α1D efficacy in series [1] came to 100%. Besides, the α1A efficacy in [2] amounted to 88%. Also, the “MAP ED20 mmHg” value in series [3] (female, Beagle, dog, in vivo, iv) was determined as 0.27 ± 0.05 nmol/kg. Also, the “IUP ED5 mmHg” value in series [3] (setting [11]) is recorded as 0.16 ± 0.02 nmol/kg.

As to `CCS(=O)(=O)Nc1cccc(Cc2c[nH]cn2)c1C` [Compound A-286569], in series [4], the Kb is 15.8 µM, the “type of antagonism at α1B” value was “non-competitive antagonist”, the “α1B r (regression of Schild plot)” value came out at 0.6 and the “α1B slope (Schild plot)” value was found to be 1.3. Moreover, in series [5], the “type of antagonism at α1D” value was “non-competitive antagonist”, the “α1D r (regression of Schild plot)” value was determined as 0.5 and the “α1D slope (Schild plot)” value was determined as 1.1. In [6] (agonist potency), the “α1B pD2” value was “inactive”. For the same molecule, the “α1D pD2” value in series [1] (agonist potency) is “inactive”. Besides, in series [7], the Kb was 6.31 µM. Further, the α1A efficacy in series [2] is 69%. Further, the “Selectivity ratio MAP ED20/IUP ED5” value in series [3] was 5.6. In addition, the “IUP ED5 mmHg” value in series [3] (setting [11]) is reported as 41.9 ± 6.2 nmol/kg. Moreover, the “MAP ED20 mmHg” value in series [3] (setting [12]) is on record as 201.6 ± 67 nmol/kg.

Turning to `CCS(=O)(=O)Nc1cccc(Cc2c[nH]cn2)c1` [Compound A-286666], in series [4], the Kb is 1.58 µM, the “type of antagonism at α1B” value is given as “competitive antagonist”, the “α1B r (regression of Schild plot)” value was 0.9 and the “α1B slope (Schild plot)” value amounted to 0.81. Moreover, in series [5], the “type of antagonism at α1D” value is “competitive antagonist”, the “α1D r (regression of Schild plot)” value is given as 0.9 and the “α1D slope (Schild plot)” value was 0.93. In addition, the “α1B pD2” value in [6] (agonist potency) is “inactive”. Besides, in series [1] (agonist potency), the “α1D pD2” value was “inactive”. In addition, in series [7], the Kb was 0.316 µM. Besides, the α1A efficacy in series [2] came out at 80%.

Turning to `C[C@@H](N)[C@H](O)c1ccccc1` [PPA, phenylpropanolamine], the Ki in series [8], in series [9] and in series [10] was more than 10 µM each time. The EC50 in series [6] (agonist potency, read-out: α1B pD2 (converted)) was 251 µM; in [1] (agonist potency, read-out: α1D pD2 (converted)) it was 63.1 µM; in series [2] (agonist potency, negative log of EC50, read-out: α1A pD2 (converted)), 200 µM. This molecule yielded a α1B efficacy in series [6] (percent of phenylephrine (100%) contraction) of 34%. In [1], this molecule had a α1D efficacy of 91%. In series [2], the α1A efficacy was 68%. In series [3], the “Selectivity ratio MAP ED20/IUP ED5” value was 0.4. For the same molecule, the “IUP ED5 mmHg” value in series [3] (setting [11]) is on record as 1092 ± 384 nmol/kg. For the same molecule, the “MAP ED20 mmHg” value in [3] (setting [12]) is 331 ± 80 nmol/kg.
